In brackets after ≈: the same amount, converted by molar mass. Like-named read-outs stand apart in the source and are kept apart here.
Tests used:
[1] = test system: WT H37Rv; assay: microbe, parasite or virus in culture; format: cell-based, Mycobacterium tuberculosis; conditions: for MIC: Mycobacterium tuberculosis, H37RV
[2] = target: T1, Pks13-TE (Mycobacterium tuberculosis, UniProt I6X8D2); assay: biochemical; format: binding
[3] = test system: pks13-TetON +ATc (Pks13-hypermorph); format: cell-based, Mycobacterium tuberculosis
[4] = test system: pks13-TetON -ATc (hypomorph); format: cell-based, Mycobacterium tuberculosis
[5] = test system: Mtb; conditions: in vivo; cited from earlier work
[6] = test system: Mtb H37Rv; design: species or system Mycobacterium tuberculosis; conditions: in vivo, po, 25 mg/kg
[7] = target: T1, Pks13-TE; assay: biochemical
[8] = read-out: MIC (whole cell activity)

T1 sequence (I6X8D2 1451-1733 limits assumed): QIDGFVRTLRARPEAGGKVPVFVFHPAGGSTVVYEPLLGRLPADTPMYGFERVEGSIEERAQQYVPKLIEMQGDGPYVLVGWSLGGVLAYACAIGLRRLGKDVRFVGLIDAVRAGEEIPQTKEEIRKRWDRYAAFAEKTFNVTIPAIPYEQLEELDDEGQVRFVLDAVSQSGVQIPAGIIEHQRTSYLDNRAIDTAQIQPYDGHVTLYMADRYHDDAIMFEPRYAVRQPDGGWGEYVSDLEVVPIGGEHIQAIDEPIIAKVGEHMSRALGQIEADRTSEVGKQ

Row | Compound | MIC ([1]; read-out: WT H37Rv MIC) | IC50 ([2]; read-out: IC50) | Hypermorph MIC fold shift (+ATc/WT) [3] | MIC ([1]; read-out: WT H37Rv MIC (uM)) | Hypomorph MIC fold shift (WT/-ATc) [4] | other results
1 | COc1ccn2nc(C(=O)N3CCN(C(=O)C4CCN(c5nc(C)cc(C(=O)N6CCCC6)n5)CC4)CC3)cc2c1 [X22276] | > 125 µM | > 10 µM |  |  |  | 
2 | Cn1ncc2cc(CCn3cc(-c4ccc(N5CC(F)(F)C5)nc4)nn3)ccc21 [X22317] | > 125 µM | > 10 µM |  |  |  | 
3 | Cn1ncc2cc(CCn3cc(-c4ccc(OCc5ccccc5)nc4)nn3)ccc21 [X22346] |  | > 10 µM |  |  |  | WT H37Rv MIC [1]: > 125 µM
4 | COc1ccc(Cl)c(-c2ccc(-c3cn(CCc4ccc(C(=O)N(C)C)cc4)nn3)cn2)c1 [X21464] |  |  | 3.8 fold | 5.5 µM (≈ 2.54 µg/mL) | 2.4 fold | IC50 ([2]; IC50 (uM)): 0.38 µM
5 | COc1ccc(F)cc1-c1ccc(-c2cn(Cc3ccncc3)nn2)cn1 [X22307] |  | > 10 µM |  |  |  | WT H37Rv MIC [1]: > 125 µM
6 | COc1ccc(OC)c(-c2ccc(-c3cn(CCc4ccc5c(cnn5C)c4)nn3)cn2)c1 [X21543] | 0.35 µM (≈ 0.154 µg/mL) | 0.49 µM | 1.7 fold |  | 3.4 fold | 
7 | Cc1cc(C(=O)NCc2ccccc2)nc(N2CCC(CN3CCN(C(=O)c4cnc5c(C)cccc5c4)CC3)CC2)n1 [X21352] |  |  | 6.1 fold | 5.2 µM (≈ 3 µg/mL) | 1.7 fold | IC50 ([2]; IC50 (uM)): 0.46 µM
8 | Cc1cc(C(=O)NCc2ccccc2)nc(N2CCC(C(=O)N3CCN(C(=O)c4ccc5nc(C)sc5c4)CC3)CC2)n1 [X21408] |  | 0.46 µM | 5.4 fold |  | 1.5 fold | WT H37Rv MIC [1]: 0.10 µM
9 | Cc1cc(C(=O)NCc2ccccc2)nc(N2CCC(C(=O)N3CCN(C(=O)c4cc5c(Cl)cccn5n4)CC3)CC2)n1 [X22324] |  | 0.53 µM | 3.7 fold |  | 3.3 fold | WT H37Rv MIC [1]: 0.22 µM
10 | Cc1cc(C(=O)NCc2ccccc2)nc(N2CC(C(=O)N3CCN(C(=O)c4ccc5nc(C)ccc5c4)CC3)C2)n1 [X22327] | 1.3 µM (≈ 0.733 µg/mL) | 0.56 µM | 3.6 fold |  | 3.1 fold | 
11 | Cc1cc(CNC(=O)c2cc(C)nc(N3CCC(C(=O)N4CCN(C(=O)c5ccc6nc(C)ccc6c5)CC4)CC3)n2)cc(C)n1 [X22277] | 0.54 µM (≈ 0.335 µg/mL) | 0.53 µM | 1.8 fold |  | 2.6 fold | 
12 | CN(C)C(=O)c1ccc(CCn2cc(-c3ccc(-c4ccccc4C(F)(F)F)nc3)nn2)cc1 [X21502] | > 125 µM | 0.59 µM |  |  |  | 
13 | Cn1ncc2cc(CCn3cc(-c4ccc(-c5cc(C(F)(F)F)ccc5F)nc4)nn3)ccc21 [X22311] | > 125 µM | 0.77 µM |  |  |  | 
14 | NNC(=O)c1ccncc1 [INH, Isoniazid, reference compound] |  |  |  |  |  | reduction of the burden [5]: 1 log10; reduction in CFU (lung) [6]: ~1.5 log10
15 | COc1ccc(OC)c(-c2ccc(-c3cn(CCc4ccc5nn(C)cc5c4)nn3)cn2)c1 [X21544] | 0.47 µM (≈ 0.207 µg/mL) | 0.55 µM | 1.5 fold |  | 2.7 fold | 
16 | COc1ccc(OC)c(-c2ncc(-c3cn(CCc4ccc(C(=O)N(C)C)cc4)nn3)cn2)c1 [X21435] |  |  |  | > 125 µM |  | IC50 ([2]; IC50 (uM)): 0.58 µM
17 | CCC(C)(C)c1ccc(S(=O)(=O)N[C@@H](Cc2ccccc2)[C@@H](O)Cc2nc(N(C)C)no2)cc1 [X20348] |  |  |  | > 250 µM |  | IC50 ([2]; enzyme potency / IC50): 0.47 µM
18 | COc1ccc(OC)c(-c2ccc(-c3cn(C4CN(c5ccc6nn(C)cc6c5)C4)nn3)cn2)c1 [X23479] |  | 0.46 µM |  |  |  | 
19 | COc1ccc(Cl)cc1-c1ccc(-c2cn(CCc3ccc(C(=O)N(C)C)cc3)nn2)cn1 [X21434] |  |  | 5.4 fold | 1.1 µM (≈ 0.508 µg/mL) | 2.4 fold | IC50 ([2]; IC50 (uM)): 0.46 µM
20 | COc1ccn2nc(C(=O)N3CCN(C(=O)C4CCN(c5nc(C)cc(C(F)(F)F)n5)CC4)CC3)cc2c1 [X22279] | > 125 µM | > 10 µM |  |  |  | 
21 | COCC1(CN(C)C(=O)c2ccc(CCn3cc(-c4ccc(-c5cc(OC)ccc5OC)nc4)nn3)cc2)CC1 [X20403] |  |  | 2.3 fold | 0.05 µM (≈ 0.0271 µg/mL) | 0.88 fold | IC50 [7]: 57 nM; MIC ([1]; read-out: MIC (Mtb inhibition)): 0.05 µM (≈ 0.0271 µg/mL); IC50 ([2]; IC50 in the TAMRA binding assay): 0.5 µM
22 | Cc1c(-c2cn(CCc3ccc(C(=O)N(C)C)cc3)nn2)cnn1-c1ccccc1F [X21774] | > 125 µM | > 10 µM |  |  |  | 
23 | COc1ccc2[nH]c(C(=O)N3CCN(C(=O)C4CCN(c5nc(C)cc(C(=O)NCc6ccccc6)n5)CC4)CC3)cc2c1OC [X20419] |  |  | 2.5 fold | 0.044 µM (≈ 0.0275 µg/mL) | 1.8 fold | MIC ([1]; read-out: MIC (Mtb inhibition)): 0.04 µM (≈ 0.025 µg/mL); fold improvement in enzyme inhibition [2]: 30 fold; IC50 ([2]; IC50 (uM)): 0.48 µM

Row | Compound | MIC ([1]; read-out: WT H37Rv MIC) | IC50 ([2]; read-out: IC50) | Hypermorph MIC fold shift (+ATc/WT) [3] | MIC ([1]; read-out: WT H37Rv MIC (uM)) | Hypomorph MIC fold shift (WT/-ATc) [4] | other results
24 | Cc1ccc(F)cc1-c1ccc(-c2cn(CCc3ccc4c(cnn4C)c3)nn2)cn1 [X22309] | > 125 µM | 0.62 µM |  |  |  | 
25 | COc1ccc(OC)c(-c2ccc(-c3nc(N(C)Cc4ccc(C(=O)N(C)C)cc4)no3)cn2)c1 [X21475] |  | > 20 µM |  |  |  | 
26 | Cc1cc(C(=O)NCc2ccccc2)nc(N2CCC(C(=O)N3CCN(C(=O)c4ccc5nc(C)ccc5c4)CC3)CC2)n1 [X22275] | 0.048 µM (≈ 0.0284 µg/mL) | 0.62 µM | 2.7 fold |  | 2.3 fold | 
27 | Cc1cccc(-c2ccc(-c3cn(CCc4ccc(C(=O)N(C)C)cc4)nn3)cn2)c1C [X21478] |  |  | 17 fold | 12 µM (≈ 5.11 µg/mL) | 1.9 fold | IC50 ([2]; IC50 (uM)): 0.47 µM
28 | CNC(=O)c1cc(C(C)C)nc(N2CCC(C(=O)N3CCN(C(=O)c4ccc(-n5nc(C)cc5C)nc4)CC3)CC2)n1 [X21426] | 13 µM (≈ 7.46 µg/mL) | 0.62 µM | 4.8 fold |  | 1.5 fold | 
29 | COc1ccc(OC)c(-c2ccc(-c3cn(CCc4ccncc4)nn3)cn2)c1 [X21498] |  | 0.37 µM | 2.7 fold |  | 1.5 fold | WT H37Rv MIC [1]: 0.26 µM
30 | Cc1cc(C(=O)NCc2ccccc2)nc(N2CCC(C(=O)N3CCN(C(=O)c4ccc(-n5nc(C)cc5C)nc4)CC3)CC2)n1 [X22239] | 0.066 µM (≈ 0.041 µg/mL) | 0.64 µM | 3.7 fold |  | 1.9 fold | 
31 | COc1ccc(OC)c(-c2ccc(-c3cn(CCc4ccc(-c5nccn5C)cc4)nn3)cn2)c1 [X21542] | 0.17 µM (≈ 0.0793 µg/mL) | 0.5 µM | 2.7 fold |  | 1.9 fold | 
32 | COc1ccc(OC)c(-c2ccc(-c3cn(C4CCN(c5ccc(C(=O)N(C)C)cc5)C4)nn3)cn2)c1 (centres unmarked) [X23546] |  | 0.65 µM |  |  |  | 
33 | COc1ccc(OC)c(-n2ncc(-c3cn(CCc4ccc(C(=O)N(C)C)cc4)nn3)c2C)c1 [X21558] |  | > 20 µM |  |  |  | 
34 | Cc1cccc2cc(-c3cn(CCc4ccc(C(=O)N(C)C)cc4)nn3)cnc12 [X21497] |  | > 10 µM |  |  |  | WT H37Rv MIC [1]: > 125 µM
35 | COc1ccc(OC)c(-c2ncc(-c3cn(CCc4ccc(C(=O)N(C)C)cc4)nn3)cc2C)c1 [X21499] |  |  |  | 18 µM (≈ 8.49 µg/mL) | 1.6 fold | IC50 ([2]; IC50 (uM)): 0.58 µM
36 | CC(=O)N1CCN(C(=O)C2CCN(c3nc(C)cc(C(=O)NCc4ccccc4)n3)CC2)CC1 [X13045] |  |  |  | 390 µM (≈ 181 µg/mL) | 1.5 fold | IC50 [7]: 15000 nM; MIC ([1]; read-out: MIC (Mtb inhibition)): 390 µM (≈ 181 µg/mL); MIC [1, 8]: 390 µM (≈ 181 µg/mL); IC50 ([2]; IC50 (uM)): 15.1 µM
37 | COc1ccn2nc(C(=O)N3CCN(C(=O)C4CCN(c5nc(C)cc(C(=O)NCc6ccccc6)n5)CC4)CC3)cc2c1 [X21411] |  |  | 6.0 fold | 0.21 µM (≈ 0.125 µg/mL) | 2.1 fold | IC50 ([2]; IC50 (uM)): 0.48 µM
38 | CNC(=O)c1cc(C)nc(N2CCC(C(=O)N3CCCN(C(=O)c4cnn5ccc(OC)cc45)CC3)CC2)n1 [X22280] | > 125 µM | > 10 µM |  |  |  | 
39 | Cc1cccc2cc(C(=O)N3CCN(C(=O)C4CCN(c5nccc(C(=O)NCc6ccccc6)n5)CC4)CC3)cnc12 [X21424] |  |  | 5.8 fold | 2.6 µM (≈ 1.5 µg/mL) | 3.0 fold | IC50 ([2]; IC50 (uM)): 0.39 µM
40 | COc1ccc(OC)c(-c2ccc(-n3cc(C4CN(c5ccc(C(=O)N(C)C)cc5)C4)nn3)cn2)c1 [X23436] |  | 0.37 µM |  |  |  | 
41 | Cc1cc(C(=O)NCc2ccncc2)nc(N2CCC(C(=O)N3CCN(C(=O)c4cnc5c(C)cccc5c4)CC3)CC2)n1 [X21429] |  |  | 3.9 fold | 0.24 µM (≈ 0.142 µg/mL) | 2.3 fold | MIC [1, 8]: 0.24 µM (≈ 0.142 µg/mL); IC50 ([2]; IC50 (uM)): 0.42 µM
42 | Cc1ccccc1-c1ncc(-c2cn(CCc3ccc(C(=O)N(C)C)cc3)nn2)s1 [X21546] |  |  |  | 18 µM (≈ 7.52 µg/mL) | 1.9 fold | IC50 ([2]; IC50 (uM)): 0.37 µM
43 | COc1ccc(OC)c(-c2ccc(-c3cn(CCc4ccc(S(=O)(=O)N(C)C)cc4)nn3)cn2)c1 [X21545] | 1.3 µM (≈ 0.642 µg/mL) | 0.53 µM | 2.8 fold |  | 3.2 fold | 
44 | COc1ccc(F)cc1-c1ccc(-c2cn(C3CN(c4ccc(C(=O)N(C)C)cc4)C3)nn2)cn1 [X23488] |  | 0.62 µM |  |  |  | 
45 | Cc1cc(C(=O)NCc2ccccc2)nc(N2CCC(C(=O)N3CCN(C(=O)c4cnc5c(C)cccc5c4)CC3)CC2)n1 [X20377] |  |  | 2.6 fold | 0.21 µM (≈ 0.124 µg/mL) | 3.5 fold | MIC ([1]; read-out: MIC (Mtb inhibition)): 0.21 µM (≈ 0.124 µg/mL); IC50 ([2]; IC50 (uM)): 0.85 µM
